In patent US20090029983A1, “NOVEL HETEROCYCLIC COMPOUNDS HAVING ANTI-HBV ACTIVITY” (priority 2005, published 2009):
Like-named read-outs stand apart in the source and are kept apart here.

What was measured:
[1] = test system: HBV; settings: HBV treatment, background statement; cited from earlier work
[2] = test system: HBV; test: HBV screening assay (viral DNA in baculovirus-HBV transduced HepG2 cells); type: cell-based
Procedure, shortened: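 HepG2 cells transduced with baculovirus carrying the HBV genome were grown 3 days at 37 °C with compound in EMEM/10% FBS; viral DNA from lysates captured by solid-phase hybridisation with digoxigenin probes and read by anti-digoxigenin HRP ELISA. EC50 from titration curves; CC50 from non-transduced HepG2 after 3 days by MTS viability.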

[3] = Hepatitis B virus, HepG2, 72 h, read-out: EC50 (antiviral activity), HBV-transduced HepG2 cells, three days with compound, viral DNA by ELISA

| Structure (SMILES) | EC50 [2, 3] | further results |
| --- | --- | --- |
| CC(C)(C)C(=O)OCOP(=O)(COCCn1cnc2c(N)ncnc21)OCOC(=O)C(C)(C)C [adefovir dipivoxil, 9-(2-((-bis((pivaloyloxy)methoxy)phosphinyl)methoxy)ethyl)adenine] |  | sustained viral response rate [1]: below 20% |
| NC(=O)c1sc2nc3c(c(-c4cccs4)c2c1N)CN(C(=S)NCc1ccccc1)C3 [Compound 84, 3-Amino-6-benzylthiocarbamoyl-4-thiophen-2-yl-6,7-dihydro-5H-1-thia-6,8-diaza-s-indacene-2-carboxylic acid amide] |  | EC50 ([2]; read-out: EC50 (antiviral activity), HBV-transduced HepG2 cells, three days with compound, viral DNA by ELISA): 1 to 10 µM |
| Cc1ccsc1-c1c2c(nc3sc(C(N)=O)c(N)c13)CCCC2=O [Compound 75, 3-Amino-4-(3-methyl-thiophen-2-yl)-5-oxo-5,6,7,8-tetrahydro-thieno[2,3-b]quinoline-2-carboxylic acid amide] | < 1 µM |  |
| N#CCCC1CCCc2c1nc1sc(C(N)=O)c(N)c1c2-c1cccs1 (stereo not shown) [Compound 62, 3-Amino-8-(2-cyano-ethyl)-4-thiophen-2-yl-5,6,7,8-tetrahydro-thieno[2,3-b]quinoline-2-carboxylic acid amide] | > 10 µM |  |
| NC(=O)c1sc2nc3c(c(-c4cccs4)c2c1N)CN(C(=S)Nc1ccc(F)cc1)C3 [Compound 88, 3-Amino-6-(4-fluoro-phenylthiocarbamoyl)-4-thiophen-2-yl-6,7-dihydro-5H-1-thia-6,8-diaza-s-indacene-2-carboxylic acid amide] | > 10 µM |  |
| NC(=O)c1sc2nc3c(c(-c4cccs4)c2c1N)CN(CC1CC1)C3 [Compound 8, 3-Amino-6-cyclopropylmethyl-4-thiophen-2-yl-6,7-dihydro-5H-1-thia-6,8-diaza-s-indacene-2-carboxylic acid amide] | > 10 µM |  |
| CC1CCc2c1nc1sc(C(N)=O)c(N)c1c2-c1cccs1 (stereo not shown) [Compound 37, 3-Amino-7-methyl-4-thiophen-2-yl-6,7-dihydro-5H-cyclopenta[b]thieno[3,2-e]pyridine-2-carboxylic acid amide] | < 1 µM |  |
| CC1CCc2nc3sc(C(N)=O)c(N)c3c(-c3cccs3)c2C1 (stereo not shown) [Compound 72, 3-Amino-6-methyl-4-thiophen-2-yl-5,6,7,8-tetrahydro-thieno[2,3-b]quinoline-2-carboxylic acid amide] | > 10 µM |  |
| COc1ccccc1CNC(=O)CC1CCc2c1nc1sc(C(N)=O)c(N)c1c2-c1cccs1 (stereo not shown) [Compound 44, 3-Amino-7-[(2-methoxy-benzylcarbamoyl)-methyl]-4-thiophen-2-yl-6,7-dihydro-5H-cyclopenta[b]thieno[3,2-e]pyridine-2-carboxylic acid amide] | > 10 µM |  |
| NC(=O)c1sc2nc3c(c(-c4cccs4)c2c1N)CN(C1=NCCS1)C3 [Compound 95, 3-Amino-6-(4,5-dihydro-thiazol-2-yl)-4-thiophen-2-yl-6,7-dihydro-5H-1-thia-6,8-diaza-s-indacene-2-carboxylic acid amide] | < 1 µM |  |
| CCCCNC(=S)N1Cc2nc3sc(C(N)=O)c(N)c3c(-c3cccs3)c2C1 [Compound 82, 3-Amino-6-butylthiocarbamoyl-4-thiophen-2-yl-6,7-dihydro-5H-1-thia-6,8-diaza-s-indacene-2-carboxylic acid amide] | 1 to 10 µM |  |
| COCCN1Cc2nc3sc(C(N)=O)c(N)c3c(-c3cccs3)c2C1 [Compound 17, 3-Amino-6-(2-methoxy-ethyl)-4-thiophen-2-yl-6,7-dihydro-5H-1-thia-6,8-diaza-s-indacene-2-carboxylic acid amide] | > 10 µM |  |
| NC(=O)c1sc2nc3c(c(-c4cccs4)c2c1N)CN(C(=O)Nc1ccccc1)C3 [Compound 96, 3-Amino-4-thiophen-2-yl-5,7-dihydro-1-thia-6,8-diaza-s-indacene-2,6-dicarboxylicacid 2-amide 6-phenylamide] | > 10 µM |  |
| NC(=O)c1sc2nc3c(c(-c4cccs4)c2c1N)CN(CCc1ccccc1)C3 [Compound 10, 3-Amino-6-phenethyl-4-thiophen-2-yl-6,7-dihydro-5H-1-thia-6,8-diaza-s-indacene-2-carboxylic acid amide] | > 10 µM |  |
| NC(=O)c1sc2nc3c(c(-c4cccs4)c2c1N)CCC3CC(=O)NC1CCCCC1 (stereo not shown) [Compound 51, 3-Amino-7-cyclohexylcarbamoylmethyl-4-thiophen-2-yl-6,7-dihydro-5H-cyclopenta[b]thieno[3,2-e]pyridine-2-carboxylic acid amide] | > 10 µM |  |
| NC(=O)c1sc2nc3c(c(-c4cccs4)c2c1N)CCNC3 [Compound 29, 3-Amino-4-thiophen-2-yl-5,6,7,8-tetrahydro-1-thia-7,9-diaza-cyclopenta[b]naphthalene-2-carboxylic acidamide] | < 1 µM |  |
